# Measured values from patent publication EP1191024A1, “Thiadiazines and their use as inhibitors of metalloproteinases” (Tschesche, Harald, priority 2000, dated 2002).
# Structures can show the parent of a compound that is named as a salt. Where two headings read alike, the source gives them in different places.
# How the values were obtained:
# Assay in all cases: MMP microfluorometric profiling assay (fluorogenic Mca-peptide substrate)
# Assay type in all cases: biochemical
# cdMMP-13 = cdMMP-13 (Homo sapiens, UniProt P45452); conditions: for percent inhibition: cdMMP-13, @ 15 (µM)
# Protocol: (§1) The tested MMP enzymes were prepared more specifically in the laboratories of the applicants, with the exception of MMP-1. MMP-1 from human rheumatoid synovial fibroblasts was purchased from Calbiochem-Novabiochem Corporation, LaJolla. Preparation of the recombinant catalytic domain of human Gelatinase A (cdMMP-2): The catalytic domain of Pro-Gelatinase A was prepared using an E. coli expression system according to the method described by Kröger et al^[19]. The proenzyme was activated with 0.5 mM APMA at 37°C prior to use in the assay. Preparation of the recombinant catalytic domain of human neutrophile Collagenase (cdMMP-8^Met80): The enzyme was expressed in E. coli as an active variant by the method of Kleine et al^[20]. Preparation of PMNL-Gelatinase (MMP-9): Latent PMNL-pro-Gelatinase was prepared from human plasma buffy coat as described by Tschesche et al^[21]. PMNL-pro-Gelatinase was activated prior to use by incubation with Trypsin at 37°C for 10 min. Inactivation of Trypsin was accomplished with TKI. Preparation of the recombinant catalytic domain of human Macrophage Elastase (cdMMP-12): The catalytic domain of MMP-12 was expressed in E. coli. The overexpressed protein was isolated as inclusion bodies and the renatured protein was purified by affinity chromatography with a hydroxamate inhibitor coupled column as described^[22]. Preparation of the recombinant catalytic domain of human Collagenase-3 (cdMMP-13): Human pro-cdMMP-13 was prepared using an E. coli expression system according to the method described^[23]. The isolated pro-cdMMP-13 was activated prior to use by incubation with 5 mM HgCl2 for 2 h at 37°C. Preparation of the recombinant catalytic domain of Membrane-Type-1 MMP (cdMMP-14): The catalytic domain of MMP-14 was expressed in E. coli and was activated by autocatalysis^[24]. Preparation of the recombinant human ectodomain of Membrane-Type-1 MMP (ΔTM-MMP-14): The ectodomain of MMP-14 was expressed in Pichia Pastoris by the method of Roderfeld et al. and activated by yeast proteases (Furin-like-proteases) during maturation^[25].
# (§2) The enzymatic activity was measured using a modified version of a resonance energy transfer fluorogenic assay as described^[26]. Progress curves were monitored by following the increase in fluorescence at 393 nm (λex = 328 nm), induced by the cleavage of the (7-methoxycoumarin-4-yl)acetyl-Pro-Leu-Gly-Leu-(3-[2,4-dinitro-phenyl]-L-2,3-diamino-propionyl)-Ala-Arg-NH2 (Mca-Pro-Leu-Gly-Leu-Dpa-Ala-Arg-NH2) fluorogenic substrate by MMPs. The fluorescent MCA-group is quenched by resonance energy transfer to the 2,4-dinitrophenyl group. Matrix metalloproteinases cleave this substrate at the Gly-Leu bond. Cleavage results in the loss of energy transfer and a large increase in fluorescence of the MCA group. This substrate is commercially available from Bachem, Switzerland.
# (§3) Enzyme inhibition assays were carried out in MRB which consisted of 50 mM HEPES/NaOH, pH 7.0, 10 mM CaCl2 and 0,02% (w/v) PEG 8000 at 25°C. MMP microfluorometric profiling assay was done in white U-bottomed 96-well plates (Microfluor 1 White, Dynex, USA) with a final substrate concentration of 6 µM MCA-peptide, approximately 0.3 to 5 nM MMP with variable inhibitor concentrations and 2% DMSO vehicle. From a 1.5 mM stock (100% DMSO) the inhibitors were serially diluted with MRB to 15, 10, 5, 3, 1, 0.6, 0.3, 0.1, 0.05, 0.01 and 0.005 µM final assay concentration. Column 1, rows A through H, contained only DMSO for the "enzyme-only" wells in the assay. After preincubation for 30 min at 25°C the reaction was started by addition of substrate and the plate was read on a SpectraFluor Plus (Tecan, Germany) plate reader with excitation at 330 nm and emission at 405 nm with the gain set to 150. Each measurement was done in triplicate to ensure statistically significant results. […]
# cdMMP-14 = molecular target: T1, cdMMP-14 (Homo sapiens, UniProt P50281)
# T1 construct: made in house; host or cells: E. coli
# Protocol: as §1, §2, §3
# cdMMP-2 = cdMMP-2 (Homo sapiens, UniProt P08253)
# Chain of cdMMP-2 (P08253 110-446): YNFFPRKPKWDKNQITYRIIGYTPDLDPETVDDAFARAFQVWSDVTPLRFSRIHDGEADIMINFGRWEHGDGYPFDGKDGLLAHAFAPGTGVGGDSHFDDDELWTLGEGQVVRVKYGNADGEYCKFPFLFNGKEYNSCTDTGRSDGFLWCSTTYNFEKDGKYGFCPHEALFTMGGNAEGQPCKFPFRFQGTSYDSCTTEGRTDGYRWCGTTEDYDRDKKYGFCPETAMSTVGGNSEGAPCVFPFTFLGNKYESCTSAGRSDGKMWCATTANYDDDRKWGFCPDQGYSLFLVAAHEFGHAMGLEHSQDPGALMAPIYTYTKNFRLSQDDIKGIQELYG
# Protocol: The tested MMP enzymes were prepared more specifically in the laboratories of the applicants, with the exception of MMP-1. MMP-1 from human rheumatoid synovial fibroblasts was purchased from Calbiochem-Novabiochem Corporation, LaJolla. Preparation of the recombinant catalytic domain of human Gelatinase A (cdMMP-2): The catalytic domain of Pro-Gelatinase A was prepared using an E. coli expression system according to the method described by Kröger et al^[19]. The proenzyme was activated with 0.5 mM APMA at 37°C prior to use in the assay. […] Preparation of PMNL-Gelatinase (MMP-9): Latent PMNL-pro-Gelatinase was prepared from human plasma buffy coat as described by Tschesche et al^[21]. PMNL-pro-Gelatinase was activated prior to use by incubation with Trypsin at 37°C for 10 min. Inactivation of Trypsin was accomplished with TKI. […] The overexpressed protein was isolated as inclusion bodies and the renatured protein was purified by affinity chromatography with a hydroxamate inhibitor coupled column as described^[22]. Preparation of the recombinant catalytic domain of human Collagenase-3 (cdMMP-13): Human pro-cdMMP-13 was prepared using an E. coli expression system according to the method described^[23]. The isolated pro-cdMMP-13 was activated prior to use by incubation with 5 mM HgCl2 for 2 h at 37°C.
# as §2
# Enzyme inhibition assays were carried out in MRB which consisted of 50 mM HEPES/NaOH, pH 7.0, 10 mM CaCl2 and 0,02% (w/v) PEG 8000 at 25°C. MMP microfluorometric profiling assay was done in white U-bottomed 96-well plates (Microfluor 1 White, Dynex, USA) with a final substrate concentration of 6 µM MCA-peptide, approximately 0.3 to 5 nM MMP with variable inhibitor concentrations and 2% DMSO vehicle. From a 1.5 mM stock (100% DMSO) the inhibitors were serially diluted with MRB to 15, 10, 5, 3, 1, 0.6, 0.3, 0.1, 0.05, 0.01 and 0.005 µM final assay concentration. Column 1, rows A through H, contained only DMSO for the "enzyme-only" wells in the assay. After preincubation for 30 min at 25°C the reaction was started by addition of substrate and the plate was read on a SpectraFluor Plus (Tecan, Germany) plate reader with excitation at 330 nm and emission at 405 nm with the gain set to 150. Each measurement was done in triplicate to ensure statistically significant results. The experiment was further controlled for background fluorescence of the substrate, for fluorescence of fully cleaved substrate and for fluorescence quenching or augmentation from solutions containing the test compounds.
# Datapoints from eight different MMPs generated on the SpectraFluor Plus were directly visualized on a master Excel spreadsheet. The response of inhibition was determinated for each inhibitor concentration by comparing the amount of hydrolysis (fluorescence units generated over 30 minutes of hydrolysis) of wells containing compound with the "enzyme-only" wells in column 1. With the program GraFit (Erithacus Software Limited) a 4 parameter logistic fit to the dose-response data was used to calculate IC50 values for each compound.
smiles,measurement,setting,value
"O=C(CC1NC(=O)NC1=O)NC1=NN=C(c2ccc(C3CCCCC3)cc2)CS1 (stereo not drawn) [Example 25, N-[5-(4-Cyclohexylphenyl)-6H-1,3,4-thiadiazin-2-yl]-2-(2,5-dioxo-4-imidazolidinyl)acetamide]",percent inhibition,cdMMP-13,67%^a)@ 15
same,percent inhibition,"cdMMP-14; cdMMP-14, @ 15 (µM)",66%^a)@ 15
same,percent inhibition,"cdMMP-2; cdMMP-2, @ 15 (µM)",53%^a)@ 15
"O=C(CC1NC(=O)NC1=O)NC1=NN=C(c2ccc(N3CCCC3)cc2)CS1 (stereo not drawn) [Example 26, 2-(2,5-Dioxo-4-imidazolidinyl)-N-{5-[4-(1-pyrrolidinyl)phenyl]-6H-1,3,4-thiadiazin-2-yl}acetamide]",percent inhibition,cdMMP-13,36%^a)@ 15
same,IC50,cdMMP-14,1100 nM
same,IC50,cdMMP-2; read-out: cdMMP-2 IC50,890 nM
"C[C@H](NS(=O)(=O)N1CCOCC1)C(=O)NC1=NN=C(c2ccc(Cl)cc2)CS1 [Example 28, (2S)-N-[5-(4-Chlorophenyl)-6H-1,3,4-thiadiazin-2yl-]-2-[(4-morpholinylsulfonyl)amino]propanamide]",IC50,cdMMP-13,735 nM
same,IC50,cdMMP-14,471 nM
same,IC50,cdMMP-2,662 nM
"C[C@H](NS(=O)(=O)c1cccnc1)C(=O)NC1=NN=C(c2ccc(Cl)cc2)CS1 [Example 29, (2S)-N-[5-(4-Chlorophenyl)-6H-1,3,4-thiadiazin-2-yl]-2-[(3-pyridylsulfonyl)-amino]propanamide]",IC50,cdMMP-13; read-out: cdMMP-13 IC50,361 nM
same,IC50,cdMMP-14,443 nM
same,IC50,cdMMP-2; read-out: cdMMP-2 IC50,354 nM
"O=C1C[C@@H](C(=O)NC2=NN=C(c3ccc(Cl)cc3)CS2)NC(=O)N1 [Example 30, (4S)-N-[5-(4-Chlorophenyl)-6H-1,3,4-thiadiazin-2-yl]-2,6-dioxohexahydro-4-pyrimidinecarboxamide]",IC50,cdMMP-13; read-out: cdMMP-13 IC50,947 nM
same,IC50,cdMMP-14,477 nM
same,IC50,cdMMP-2; read-out: cdMMP-2 IC50,693 nM
"C=CCNC1=NN=C(c2ccc(Cl)cc2)CS1 [Example 31, N-Allyl-5-(4-chlorophenyl)-6H-1,3,4-thiadiazin-2-amine hydrobromide]",IC50,cdMMP-13,> 15000 nM
same,IC50,cdMMP-14,2700 nM
same,IC50,cdMMP-2,3310 nM
